This note sets out measurements from patent US8618301B2, “5-phenylpyrazolopyridine derivatives, preparation and therapeutic use thereof” (Sanofi, priority 2009, dated 2013).

pEC50: −log10 of the molar value.

The target of one data set is T1, mouse Nurr1 receptor (Mus musculus, UniProt Q06219).
T1 construct: a cell line (N2A) endogenously expressing the mouse Nurr1 receptor; host or cells: Neuro-2A (N2A) mouse neuroblastoma cells stably transfected with 8NBRE-luciferase
The experiment in a line: In vitro activity on N2A cells (8NBRE-luciferase reporter). The class given is cell-based. To be noted: N2A-8NBRE cells, 24 hours incubation. The protocol:
The compounds according to the invention have formed the subject of pharmacological assays which make it possible to determine their modulatory effect on NOT. Evaluation of the In Vitro Activity on N2A Cells
The activity of the compounds according to the invention was evaluated on a cell line (N2A) endogenously expressing the mouse Nurr1 receptor and stably transfected with the NOT binding response element (NBRE) coupled to the luciferase reporter gene. The assays were carried out according to the procedure described below.
The Neuro-2A cell line comes from a standard commercial source (ATCC). The Neuro-2A clone was obtained, from a spontaneous tumour originating from an A albino mouse strain, by R. J Klebe et al. This Neuro-2A line is subsequently stably transfected with 8NBRE-luciferase. The N2A-8NBRE cells are cultured until confluence in 75 cm^2 culture flasks containing DMEM supplemented with 10% of foetal calf serum, 4.5 g/l of glucose and 0.4 mg/ml of geneticin. After a week of culture, the cells are recovered with 0.25% trypsin for 30 seconds and then resuspended in DMEM without phenol red, containing 4.5 g/l of glucose and 10% of Hyclone delipidized serum, and deposited into transparent-bottom 96-well white plates. The cells are deposited at a rate of 60 000 per well in 75 μl for 24 hours before the addition of the products. The products are applied in 25 μl and incubated for a further 24 hours. On the day of the measurement, an equivalent volume (100 μl) of Steadylite is added to each well and then left for a period of 30 minutes in order to obtain complete cell lysis and maximum signal production. The plates are subsequently measured in a luminescence counter for microplates after having been sealed with an adhesive film. The products are prepared in the form of a stock solution at 10^−2M and then diluted in 100% of DMSO. Each product concentration is prediluted in culture medium before incubation with the cells, thus containing 0.625% final concentration of DMSO.
A general note: In a reporter assay the amount or activity of a reporter protein is the signal.

T1 sequence (Q06219 whole entry): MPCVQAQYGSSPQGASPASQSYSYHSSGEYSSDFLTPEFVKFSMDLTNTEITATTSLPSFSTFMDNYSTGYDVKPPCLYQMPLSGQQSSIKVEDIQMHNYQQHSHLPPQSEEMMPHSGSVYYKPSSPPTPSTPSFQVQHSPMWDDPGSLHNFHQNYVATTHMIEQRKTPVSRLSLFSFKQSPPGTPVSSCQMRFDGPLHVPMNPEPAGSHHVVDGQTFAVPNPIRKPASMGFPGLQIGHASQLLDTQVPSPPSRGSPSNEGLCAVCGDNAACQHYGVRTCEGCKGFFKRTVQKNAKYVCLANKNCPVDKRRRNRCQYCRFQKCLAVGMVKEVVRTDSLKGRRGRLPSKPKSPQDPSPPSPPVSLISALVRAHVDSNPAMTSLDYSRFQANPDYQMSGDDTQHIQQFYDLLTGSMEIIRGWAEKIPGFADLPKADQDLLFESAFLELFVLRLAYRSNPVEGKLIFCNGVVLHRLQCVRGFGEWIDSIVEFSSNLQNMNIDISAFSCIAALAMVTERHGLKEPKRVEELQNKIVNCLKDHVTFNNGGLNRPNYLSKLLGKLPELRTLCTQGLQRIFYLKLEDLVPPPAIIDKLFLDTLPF

Regarding `OCC1(c2cccc(-c3ccn4nc(-c5ccc(Cl)cc5)cc4c3)c2)CC1` [Compound 4, 1-{3-[2-(4-chlorophenyl)pyrazolo[1,5-a]pyridin-5-yl]phenyl}cyclopropylmethanol], the melting point (as a rule, the temperature of the solid-liquid transition) was 141 to 143 °C.

As to `CC(C)(O)c1cccc(-c2ccn3nc(-c4ccc(Cl)cc4)cc3c2)c1` [Compound 2, 2-{3-[2-(4-chlorophenyl)pyrazolo[1,5-a]pyridin-5-yl]phenyl}propan-2-ol], the melting point lay within 159 to 161 °C.

In turn, `COCc1cccc(-c2ccn3nc(-c4ccc(Cl)cc4)cc3c2)c1` [Compound 9, 2-(4-chlorophenyl)-5-(3-methoxymethylphenyl)pyrazolo[1,5-a]pyridine] registered a melting point of 130 to 132 °C.

On to `CC(O)c1cccc(-c2ccn3nc(-c4ccc(Cl)cc4)cc3c2)c1` (stereo not drawn) [Compound 3, 1-{3-[2-(4-chlorophenyl)pyrazolo[1,5-a]pyridin-5-yl]phenyl}ethanol], for which the melting point was 93 to 95 °C.

The compound `CC(C)(O)c1cccc(-c2ccn3nc(-c4ccc(F)cc4)cc3c2)c1` [Compound 7, 2-{3-[2-(4-fluorophenyl)pyrazolo[1,5-a]pyridin-5-yl]phenyl}propan-2-ol] showed a melting point of 162 to 164 °C.

Take `OCc1ccc(-c2ccn3nc(-c4ccc(Cl)cc4)cc3c2)cc1` [Compound 10, {4-[2-(4-chlorophenyl)pyrazolo[1,5-a]pyridin-5-yl]phenyl}methanol]: the melting point lay within 214 to 216 °C.

`OCc1cccc(-c2ccn3nc(-c4ccc(F)cc4)cc3c2)c1` [Compound 6, {3-[2-(4-fluorophenyl)pyrazolo[1,5-a]pyridin-5-yl]phenyl}methanol] came in with a melting point of 141 to 143 °C.

`OCc1cccc(-c2ccn3nc(-c4ccc(Cl)cc4)cc3c2)c1` [Compound 1, {3-[2-(4-chlorophenyl)pyrazolo[1,5-a]pyridin-5-yl]phenyl}methanol] showed a melting point of 161 to 164 °C. The negative-log EC50 (pEC50) (in general, −log10 of the EC50, conventionally taken in molar units) on mouse Nurr1 receptor is 9.70.

`OC1CCc2ccc(-c3ccn4nc(-c5ccc(Cl)cc5)cc4c3)cc21` (stereo not drawn) [Compound 12, 6-[2-(4-chlorophenyl)pyrazolo[1,5-a]pyridin-5-yl]indan-1-ol] had a melting point of 181 to 183 °C. The compound also gave a pEC50 on mouse Nurr1 receptor of 6.79.

Consider `CC(O)c1cccc(-c2ccn3nc(-c4ccc(F)cc4)cc3c2)c1` (stereo not drawn) [Compound 8, 1-{3-[2-(4-fluorophenyl)pyrazolo[1,5-a]pyridin-5-yl]phenyl}ethanol], for which the melting point was 132 to 134 °C.

The compound `OCc1c(F)ccc(-c2ccn3nc(-c4ccc(Cl)cc4)cc3c2)c1F` [Compound 5, {3-[2-(4-chlorophenyl)pyrazolo[1,5-a]pyridin-5-yl]-2,6-difluorophenyl}-methanol] registered a melting point of 190 to 192 °C.

In turn, `OCc1ccccc1-c1ccn2nc(-c3ccc(Cl)cc3)cc2c1` [Compound 11, {2-[2-(4-chlorophenyl)pyrazolo[1,5-a]pyridin-5-yl]phenyl}methanol] gave a melting point of 144 to 146 °C. On mouse Nurr1 receptor, this compound gave a pEC50 of 8.77.
